Results as given in US20150044144A1, “DISINFECTANT SOLUTION” (RAYMAT MATERIALS, INC., priority 2012, published 2015).
Values belong to the compound of their own block, whether it stands above or below them.

Experiment: Screening stability of different colorants with ORP by UV-Vis
Settings: 300 ppm colorant; for Colour / UV-vis stability of colorant in ORP solution: 25° C., vs control water solution

- Colour / UV-vis stability of colorant in ORP solution (low concentration ORP (30 ppm FAC)): the red color disappeared quickly
Compound: O=C1OC2(c3ccccc31)c1cc(Br)c(O)c(Br)c1Oc1c2cc(Br)c(O)c1Br [Eosine Free Acid Solvent Red 43 D&C red 21]

- Colour / UV-vis stability of colorant in ORP solution (high concentration ORP (100 ppm FAC)): the red color disappeared quickly
Compound: O=C([O-])c1ccccc1-c1c2cc(Br)c(=O)c(Br)c-2oc2c(Br)c([O-])c(Br)cc12.[Na+].[Na+] [Eosine YS Acid Red 87 D&C red 22]

- UV-visible absorbance of the colored ORP solution (high and low FAC ORP solutions, after 10 days): decreased significantly
Compound: COc1cc(S(=O)(=O)[O-])c(C)cc1N=Nc1c(O)ccc2cc(S(=O)(=O)[O-])ccc12.[Na+].[Na+] [Food dye FD&C red 40]
